Results: ChEMBL document CHEMBL5154722, “Identification of new potent anticancer derivatives through simplifying the core structure and modification on their 14- hydroxyl group from oridonin” (Eur J Med Chem, 2022)

test system: K562; assay: Antiproliferative activity against human K562 cells assessed as reduction in cell viability incubated for 72 hrs by MTT assay; assay type: functional, cell-based; details: K562, 72 h

Compound | IC50
C=C1C(=O)[C@]23[C@H](OC(=O)/C=C/c4ccco4)[C@H]1CC[C@H]2[C@]12C=CCC(C)(C)[C@H]1[C@H](O)[C@@]3(O)OC2 | 1520 nM
C=C1C(=O)[C@]23[C@H](OC(=O)/C=C/c4ccc(F)nc4)[C@H]1CC[C@H]2[C@]12C=CCC(C)(C)[C@H]1[C@H](O)[C@@]3(O)OC2 | 830 nM
C=C1C(=O)[C@]23[C@H](OC(=O)/C=C/c4ccccc4)[C@H]1CC[C@H]2[C@]12CCCC(C)(C)[C@H]1C[C@@]3(O)OC2 | 2740 nM
C=C1C(=O)[C@]23[C@H](OC(=O)/C=C/c4cccc(Br)n4)[C@H]1CC[C@H]2[C@]12C=CCC(C)(C)[C@H]1[C@H](O)[C@@]3(O)OC2 | 1370 nM
C=C1C(=O)[C@]23[C@H](OC(=O)/C=C/c4ccccc4)[C@H]1CC[C@H]2[C@]12CCCC(C)(C)[C@H]1[C@H](O)[C@@]3(O)OC2 | 1760 nM
C=C1C(=O)[C@]23[C@H](OC(=O)/C=C/c4ccco4)[C@H]1CC[C@H]2[C@]12CCCC(C)(C)[C@H]1C[C@@]3(O)OC2 | 1440 nM
C=C1C(=O)[C@]23[C@H](OC(=O)/C=C/c4cncnc4)[C@H]1CC[C@H]2[C@]12C=CCC(C)(C)[C@H]1[C@H](O)[C@@]3(O)OC2 | 460 nM
C=C1C(=O)[C@]23[C@H](OC(=O)/C=C/C)[C@H]1CC[C@H]2[C@]12CCCC(C)(C)[C@H]1[C@H](O)[C@@]3(O)OC2 | 390 nM
C=C1C(=O)[C@]23[C@H](OC(=O)C=C(C)C)[C@H]1CC[C@H]2[C@]12CCCC(C)(C)[C@H]1[C@H](O)[C@@]3(O)OC2 | 900 nM
C=C1C(=O)[C@]23[C@H](OC(=O)/C=C/c4ccc5ccccc5n4)[C@H]1CC[C@H]2[C@]12C=CCC(C)(C)[C@H]1[C@H](O)[C@@]3(O)OC2 | 2900 nM
C=C1C(=O)[C@@]23C(CC[C@@H]1[C@H]2OC(=O)c1ccc(F)cc1)[C@]12CCCC(C)(C)C1[C@H](O)[C@@]3(O)OC2 (stereo partly drawn) | 4630 nM
C=C1C(=O)[C@]23[C@H](OC(=O)c4ccc(C)cc4)[C@H]1CC[C@H]2[C@]12CCCC(C)(C)[C@H]1C[C@@]3(O)OC2 | 5460 nM
C=C1C(=O)[C@]23[C@H](OC(=O)CCc4ccccc4)[C@H]1CC[C@H]2[C@]12C=CCC(C)(C)[C@H]1[C@H](O)[C@@]3(O)OC2 | 2740 nM
C=C1C(=O)[C@]23[C@H](OC(=O)/C=C/c4ccc5ccccc5c4)[C@H]1CC[C@H]2[C@]12CCCC(C)(C)[C@H]1[C@H](O)[C@@]3(O)OC2 | 3700 nM
C=C1C(=O)[C@]23[C@H](OC(=O)/C=C/c4cccnc4)[C@H]1CC[C@H]2[C@]12C=CCC(C)(C)[C@H]1[C@H](O)[C@@]3(O)OC2 | 540 nM
C=C1C(=O)[C@]23[C@H](OC(=O)/C=C/c4ccc(OC)nc4)[C@H]1CC[C@H]2[C@]12C=CCC(C)(C)[C@H]1[C@H](O)[C@@]3(O)OC2 | 1520 nM
C=C1C(=O)[C@]23[C@H](OC(=O)/C=C/c4ccccn4)[C@H]1CC[C@H]2[C@]12C=CCC(C)(C)[C@H]1[C@H](O)[C@@]3(O)OC2 | 1600 nM
C=C1C(=O)[C@]23[C@H](OC(=O)/C=C/c4ccsc4)[C@H]1CC[C@H]2[C@]12C=CCC(C)(C)[C@H]1[C@H](O)[C@@]3(O)OC2 | 1340 nM
C=C1C(=O)[C@]23[C@H](OC(=O)/C=C/c4ccc[nH]4)[C@H]1CC[C@H]2[C@]12C=CCC(C)(C)[C@H]1[C@H](O)[C@@]3(O)OC2 | 1510 nM

Compound | IC50
C=C1C(=O)[C@]23[C@H](OC(=O)/C=C/c4cccc5c4OCO5)[C@H]1CC[C@H]2[C@]12C=CCC(C)(C)[C@H]1[C@H](O)[C@@]3(O)OC2 | 2800 nM
C=C1C(=O)[C@]23[C@H](OC(=O)/C=C/c4ccccc4)[C@H]1CC[C@H]2[C@]12C=CCC(C)(C)[C@H]1[C@H](O)[C@@]3(O)OC2 | 710 nM
C=C1C(=O)[C@]23[C@H](OC(=O)c4ccc(Br)cc4)[C@H]1CC[C@H]2[C@]12CCCC(C)(C)[C@H]1[C@H](O)[C@@]3(O)OC2 | 4380 nM
C=C1C(=O)[C@]23[C@H](OC(=O)/C=C/c4ccc5ccccc5c4)[C@H]1CC[C@H]2[C@]12C=CCC(C)(C)[C@H]1[C@H](O)[C@@]3(O)OC2 | 2880 nM
C=C1C(=O)[C@]23[C@H](OC(=O)/C=C/c4cccc5[nH]ccc45)[C@H]1CC[C@H]2[C@]12C=CCC(C)(C)[C@H]1[C@H](O)[C@@]3(O)OC2 | 2580 nM
C=C1C(=O)[C@]23[C@H](OC(=O)/C=C/c4ccsc4)[C@H]1CC[C@H]2[C@]12CCCC(C)(C)[C@H]1C[C@@]3(O)OC2 | 800 nM
C=C1C(=O)[C@]23[C@H](OC(=O)c4ccccc4C)[C@H]1CC[C@H]2[C@]12CCCC(C)(C)[C@H]1[C@H](O)[C@@]3(O)OC2 | 3290 nM
C=C1C(=O)[C@]23[C@H](OC(=O)c4ccc(C)cc4)[C@H]1CC[C@@]2(C)[C@]12CCCC(C)(C)[C@H]1[C@H](O)[C@@]3(O)OC2 | 3010 nM
C=C1C(=O)[C@]23[C@H](OC(=O)/C=C/c4cccnc4)[C@H]1CC[C@H]2[C@]12CCCC(C)(C)[C@H]1C[C@@]3(O)OC2 | 560 nM
C=C1C(=O)[C@]23[C@H](OC(=O)CCCc4ccccc4)[C@H]1CC[C@H]2[C@]12C=CCC(C)(C)[C@H]1[C@H](O)[C@@]3(O)OC2 | 3640 nM
C=C1C(=O)[C@]23[C@H](OC(=O)/C=C/c4ccnc(F)c4)[C@H]1CC[C@H]2[C@]12CCCC(C)(C)[C@H]1C[C@@]3(O)OC2 | 900 nM
C=C1C(=O)[C@]23[C@H](OC(C)=O)[C@H]1CC[C@H]2[C@]12CCCC(C)(C)[C@H]1[C@H](O)[C@@]3(O)OC2 | 5340 nM
C=C1C(=O)[C@]23[C@H](OC(=O)c4ccccc4)[C@H]1CC[C@H]2[C@]12CCCC(C)(C)[C@H]1[C@H](O)[C@@]3(O)OC2 | 3450 nM
C=C1C(=O)[C@]23[C@H](OC(=O)/C=C/c4cccnc4Br)[C@H]1CC[C@H]2[C@]12C=CCC(C)(C)[C@H]1[C@H](O)[C@@]3(O)OC2 | 3090 nM
C=C1C(=O)[C@]23[C@H](OC(C)=O)[C@H]1CC[C@H]2[C@]12CCCC(C)(C)[C@H]1C[C@@]3(O)OC2 | 1200 nM
C=C1C(=O)[C@]23[C@H](OC(=O)C4CCCCC4)[C@H]1CC[C@H]2[C@]12CCCC(C)(C)[C@H]1[C@H](O)[C@@]3(O)OC2 | 4050 nM
C=C1C(=O)[C@]23[C@H](OC(=O)/C=C/c4ccc[nH]4)[C@H]1CC[C@H]2[C@]12CCCC(C)(C)[C@H]1[C@H](O)[C@@]3(O)OC2 | 1320 nM
C=C1C(=O)[C@]23[C@H](OC(=O)/C=C(\C)c4ccccc4)[C@H]1CC[C@H]2[C@]12CCCC(C)(C)[C@H]1[C@H](O)[C@@]3(O)OC2 | 5320 nM
C=C1C(=O)[C@]23[C@H](OC(=O)c4cccc(C)c4)[C@H]1CC[C@H]2[C@]12CCCC(C)(C)[C@H]1[C@H](O)[C@@]3(O)OC2 | 2830 nM
